SMILES strings stand for the structures.

One assay has as its target T1, μORs (Mus musculus, UniProt P42866).
T1 construct: from tissue; host or cells: crude membranes of mouse hypothalamus, brain stem and periaqueductal gray
Description: Agonist-stimulated [35S]GTPγS binding to periaqueductal gray membranes. It counts as biochemical. The note with it: PAG membranes, 50-10,000 nM, 2 hour, 30° C. For orientation: GTPγS resists hydrolysis and so accumulates on activated G proteins.

The next assay has as its system dopamine receptor. Nature of the assay: Locomotor responses to dopamine receptor stimulation. It counts as in vivo, mouse. The note with it: data not shown. The text has this: For example, locomotor responses to dopamine receptor stimulation by cocaine and apornorphine were not enhanced (data not shown). […] Other regulatory elements, such as GRKs or βarrestin-1, could compensate for the lack of βarrestin-2, or the receptors could vary in their requirement for βarrestin interaction for their regulation.

Assay [1] is described as follows: Rectal body temperature after morphine. The format is in vivo, mouse. The note with it: after morphine treatment.
The subject of a further assay is μOR. The following applies: cited from earlier work.
The next assay addresses μ opioid receptor (μOR) (Mus musculus, UniProt P42866). The note with it: given before morphine, wild type and βarr2-KO mice (data not shown). How it is done:
The “response” was defined by the animal either licking the fore- or hind-paws or flicking the hind-paws. […] To avoid tissue damage the animals were not exposed to the plate for more than 30 seconds. […] WT (n=6), heterozygotes (+/−, n=5) and KO (n=9) mice were analyzed together in the same experiment.
The degree of antinociception was determined by measuring latency of hot plate (56° C.) responses (FIG. 2). […] After 10 min., antinociception was assessed once more. […] Means±S.E.M. are shown.
After 30 minutes or 2 hours, wild-type mice were killed and blood was collected in vials containing sodium fluoride and potassium-oxalate.

Chain of μ opioid receptor (μOR) (P42866 whole entry): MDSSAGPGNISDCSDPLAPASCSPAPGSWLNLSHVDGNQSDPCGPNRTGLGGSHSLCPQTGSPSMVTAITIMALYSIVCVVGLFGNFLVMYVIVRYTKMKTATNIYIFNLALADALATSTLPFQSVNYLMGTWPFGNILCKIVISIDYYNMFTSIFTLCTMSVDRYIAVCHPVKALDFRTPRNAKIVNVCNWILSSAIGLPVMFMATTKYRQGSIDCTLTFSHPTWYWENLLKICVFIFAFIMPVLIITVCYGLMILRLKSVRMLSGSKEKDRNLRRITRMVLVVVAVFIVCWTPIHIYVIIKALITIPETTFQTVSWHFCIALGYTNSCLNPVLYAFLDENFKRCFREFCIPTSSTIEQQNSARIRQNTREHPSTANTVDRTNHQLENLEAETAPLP
T1 sequence (P42866 whole entry): as above

`C[C@@H](NC(=O)[C@@H](N)Cc1ccc(O)cc1)C(=O)NCC(=O)N(C)[C@@H](Cc1ccccc1)C(=O)NCCO` [DAMGO, [D-Ala^2, MePhe^4, Gly^5-ol]enkephalin]: the “[35S]GTPγS binding in βarr2-KO membranes compared to wild-type” value at μORs is “stimulated more [^35S]GTPγS binding”.
Turning to `CN1CCc2cccc3c2[C@H]1Cc1ccc(O)c(O)c1-3` [apornorphine], in the assay on dopamine receptor, the “locomotor responses in βarr2-KO vs wild type” value was “not enhanced”.
Turning to `CN1CC[C@]23c4c5ccc(O)c4O[C@H]2[C@@H](O)C=C[C@H]3[C@H]1C5` [morphine], in assay [1], the “change in body temperature, βarr2-KO vs wild-type” value is “greater drop in body temperature”. Besides, in the assay on μOR (transfected cells, rat μOR or mouse MOR1), the “internalization of the μOR” value is on record as “fails to induce the internalization of the μOR”. The “translocation of GFP-tagged βarrestin-2 to μOR” value with μOR (μOR overexpressed in cell culture, exposure to morphine) is reported as “fails to translocate”.
Take `Oc1ccc2c3c1O[C@H]1c4[nH]c5ccccc5c4C[C@@]4(O)[C@@H](C2)N(CC2CC2)CC[C@]314` [naltrindole]: the “inhibition of morphine analgesia” value at μ opioid receptor (μOR) was “did not inhibit analgesia”.
Regarding `Oc1ccc2c3c1O[C@H]1c4[nH]c5c(c4C[C@@]4(O)[C@@H](C2)N(CC2CC2)CC[C@]314)C[C@@]1(O)[C@H]2Cc3ccc(O)c4c3[C@@]1(CCN2CC1CC1)[C@H]5O4` [nor-binaltorphimine], the “inhibition of morphine analgesia” value against μ opioid receptor (μOR) was “did not inhibit analgesia”.

The values are drawn from US7572888B2, “Methods of assaying receptor activity and constructs useful in such methods” (Duke University, priority 1997, dated 2009).
